System: human IgG in mouse serum
Experiment: Immunoglobulin G (IgG) mRNA in vivo evaluation using lipid nanoparticle compositions (human IgG ELISA of mouse serum)
Set-up: species or system CD-1/ICR mice
Conditions: LNP with cationic lipid/DSPC/cholesterol/PEG lipid, tail vein injection, mouse serum 24 hours after administration; for Serum IgG (μg/mL) @ 0.3 mg/kg: IgG mRNA 0.3 mg mRNA/kg; for Serum IgG (μg/mL) @ 1.0 mg/kg: IgG mRNA 1.0 mg mRNA/kg
Procedure: A lipid of Formula (I), DSPC, cholesterol and PEG-lipid of Formula (II) are solubilized in ethanol at a molar ratio of 50:10:38.5:1.5 or 47.5:10:40.7:1.8. Lipid nanoparticles (LNP) are prepared at a total lipid to mRNA weight ratio of approximately 10:1 to 40:1. Briefly, the mRNA is diluted to 0.2 mg/mL in 10 to 50 mM citrate buffer, pH 4 to 6 or 10 to 25 mM acetate buffer, pH 4 to 6. Syringe pumps are used to mix the ethanolic lipid solution with the mRNA aqueous solution at a ratio of about 1:5 to 1:3 (vol/vol) with total flow rates above 15 mL/min. The ethanol is then removed, and the external buffer replaced with PBS by dialysis. Finally, the lipid nanoparticles are filtered through a 0.2 μm pore sterile filter.
Studies are performed in 6-8-week-old CD-1/ICR mice (Charles River or Inotiv) according to guidelines established by an institutional animal care committee (ACC) and the Canadian Council on Animal Care (CCAC). Varying doses of mRNA-lipid nanoparticle are systemically administered by tail vein injection and animals euthanized at a specific time point (e.g., 24 hours) post-administration. The whole blood is collected, and the serum subsequentially separated by centrifuging the tubes of the whole blood at 2000×g for 10 minutes at 4° C. and stored at −80° C. until use for analysis.
For immunoglobulin G (IgG) ELISA (Life Diagnostics Human IgG ELISA kit), the serum samples are diluted at 100 to 20,000 folds with 1× diluent solution. 100 μL of diluted serum is dispensed into anti-human IgG coated 96-well plate in duplicate alongside human IgG standards and incubated in a plate shaker at 150 rpm at 25° C. for 45 minutes. The wells are washed 5 times with 1× wash solution using a plate washer (400 μL/well). 100 μL of HRP conjugate is added into each well and incubated in a plate shaker at the same condition above. The wells are washed 5 times again with 1× wash solution using a plate washer (400 μL/well). 100 μL of TMB reagent is added into each well and incubated in a plate shaker at the same condition above. The reaction is stopped by adding 100 μL of Stop solution to each well. The absorbance is read at 450 nm (A450) with a microplate reader. The amount of human IgG in mouse serum is determined by plotting A450 values for the assay standard against human IgG concentration.
Representative compounds of the disclosure shown in Table 2 were formulated using the following molar ratio: 50% cationic lipid/10% distearoylphosphatidylcholine (DSPC)/38.5% Cholesterol/1.5% PEG lipid 2-[2-(ω-methoxy(polyethyleneglycol2000)ethoxy]-N,N-ditetradecylacetamide) or 47.5% cationic lipid/10% DSPC/40.7% Cholesterol/1.8% PEG lipid. Relative activity was determined by measuring the amount of human IgG in mouse serum as described in Example 1. The activity was compared at a dose of 1.0 or 0.3 mg mRNA/kg and expressed as ng luciferase/g liver measured 4 hours after administration, as described in Example 1 or as μg IgG/mL serum measured 24 hours after administration, as described in Example 2. Compound numbers in Table 2 refer to the compound numbers of Table 1.

Compound	Serum IgG (μg/mL) @ 0.3 mg/kg	Serum IgG (μg/mL) @ 1.0 mg/kg
CCCCCCCCCCN(CCCCCCCCCC)C(=O)CCCCCCCN(CCCCCO)CCCCCCCCOC(=O)OC(CCCCCCC)CCCCCCC [Compound I-3, 8-((8-(didecylamino)-8-oxooctyl)(5-hydroxypentyl)amino)octylpentadecan-8-yl carbonate]	30.1 ± 2.1 µg/mL	173.3 ± 9.3 µg/mL
CCCCCCCCCCN(CCCCCCCCCC)C(=O)CCCCCCCN(CCCCCO)CCCCCCCCOC(=O)OCC(CCCCCC)CCCCCCCC (stereo not shown) [Compound I-19, 8-((8-(didecylamino)-8-oxooctyl)(5-hydroxypentyl)amino)octyl (2-hexyldecyl) carbonate]	25.1 ± 4.2 µg/mL	184.5 ± 40.2 µg/mL
CCCCCCCCCCCCN(CCCCCCCCCCCC)C(=O)CCCCCCCN(CCCCCO)CCCCCCCOC(=O)OC(CCCCCCCC)CCCCCCCC [Compound I-22, 7-((8-(didodecylamino)-8-oxooctyl)(5-hydroxypentyl)amino)heptyl heptadecan-9-yl carbonate]	22.8 ± 11.0 µg/mL	–
CCCCCCCCCCN(CCCCCCCCCC)C(=O)CCCCCCCN(CCCCCO)CCCCCOC(=O)OC(CCCC)CCCC [Compound I-16, 5-((8-(didecylamino)-8-oxooctyl)(5-hydroxypentyl)amino)pentyl nonan-5-yl carbonate]	18.5 ± 2.7 µg/mL	75.4 ± 53.7 µg/mL
CCCCCCCCCCN(CCCCCCCCCC)C(=O)CCCCCCCN(CCCCCO)CCCCCCCCOC(=O)OCC(CC)CCCC (stereo not shown) [Compound I-11, 8-((8-(didecylamino)-8-oxooctyl)(5-hydroxypentyl)amino)octyl (2-ethylhexyl) carbonate]	39.6 ± 6.3 µg/mL	–
CCCCCCCCCCN(CCCCCCCCCC)C(=O)CCCCCCCCC(CCCCCCCCC(=O)OCC(CCCC)CCCCCC)N(CCCCCCCCCC)C(=O)CCCN(C)C (stereo not shown) [Compound I-25, 2-butyloctyl 10-(n-decyl-4-(dimethylamino)butanamido)-19-(didecylamino)-19-oxononadecanoate]	9.3 ± 1.7 µg/mL	68.3 ± 13.4 µg/mL
CCCCCCCCCCN(CCCCCCCCCC)C(=O)CCCCCCCCC(CCCCCCCCC(=O)OCC(CCCC)CCCCCC)N(CCCCCCCC)C(=O)CCCN1CCCC1 (stereo not shown) [Compound I-24, 2-butyloctyl 19-(didecylamino)-10-(n-octyl-4-(pyrrolidin-1-yl)butanamido)-19-oxononadecanoate]	25.1 ± 7.7 µg/mL	–
CCCCCCCCC(CCCCCCCC)OC(=O)OCCCCCCCN(CCCCCO)CCCCCCCCCC(=O)N(CCCCCCCC)CCCCCCCC [Compound I-20, 7-((10-(dioctylamino)-10-oxodecyl)(5-hydroxypentyl)amino)heptyl heptadecan-9-yl carbonate]	51.4 ± 12.8 µg/mL	–
CCCCCCCCCCOC(=O)OCCCCCCCCN(C)CCCCCCCC(=O)N(CCCCCCCCCC)CCCCCCCCCC [Compound I-2, decyl (8-((8-(didecylamino)-8-oxooctyl)(methyl)amino)octyl) carbonate]	22.3 ± 7.8 µg/mL	134.9 ± 26.6 µg/mL
CCCCCCCCCCCCN(CCCCCCCCCCCC)C(=O)CCCCCN(CCCCCO)CCCCCCCOC(=O)OC(CCCCCCCC)CCCCCCCC [Compound I-21, 7-((6-(didodecylamino)-6-oxohexyl)(5-hydroxypentyl)amino)heptyl heptadecan-9-yl carbonate]	9.7 ± 3.3 µg/mL	–
CCCCCCCCCCN(CCCCCCCCCC)C(=O)CCCCCCCN(CCCCCO)CCCCCCCCCOC(=O)OC(CCCC)CCCC [Compound I-14, 9-((8-(didecylamino)-8-oxooctyl)(5-hydroxypentyl)amino)nonyl nonan-5-yl carbonate]	37.0 ± 18.5 µg/mL	280.8 ± 86.6 µg/mL
CCCCCCCCCCN(CCCCCCCCCC)C(=O)CCCCCCCN(C)CCCCCCCCOC(=O)OC(CCCCCCC)CCCCCCC [Compound I-4, 8-((8-(didecylamino)-8-oxooctyl)(methyl)amino)octylpentadecan-8-yl carbonate]	8.5 ± 2.0 µg/mL	73.6 ± 15.6 µg/mL
CCCCCCCCCCN(CCCCCCCCCC)C(=O)CCCCCCCN(CCCCCO)CCCCCCCOC(=O)OC(CCCCCCCC)CCCCCCCC [Compound I-18, 7-((8-(didecylamino)-8-oxooctyl)(5-hydroxypentyl)amino)heptyl heptadecan-9-yl carbonate]	51.5 ± 9.5 µg/mL	290.2 ± 50.5 µg/mL
CCCCCCCCCCN(CCCCCCCCCC)C(=O)CCCCCCCCC(CCCCCCCCC(=O)OCC(CCCC)CCCCCC)N(CCCCCCCCCC)C(=O)CCN(C)C (stereo not shown) [Compound I-8, 2-butyloctyl 10-(N-decyl-3-(dimethylamino)propanamido)-19-(didecylamino)-19-oxononadecanoate]	21.7 ± 4.3 µg/mL	232.4 ± 42.5 µg/mL
CCCCCCCCC(CCCCCCCC)OC(=O)OCCCCCCCN(CCCCCO)CCCCCCCC(=O)N(CCCCCCCC)CCCCCCCC [Compound I-23, 7-((8-(dioctylamino)-8-oxooctyl)(5-hydroxypentyl)amino)heptyl heptadecan-9-yl carbonate]	34.8 ± 12.3 µg/mL	–
CCCCCCCCCCOC(=O)OCCCCCCCCN(CCCCCO)CCCCCCCC(=O)N(CCCCCCCCCC)CCCCCCCCCC [Compound I-1, decyl (8-((8-(didecylamino)-8-oxooctyl)(5-hydroxypentyl)amino)octyl) carbonate]	15.6 ± 5.1 µg/mL	121.5 ± 33.1 µg/mL
CCCCCCCCCCN(CCCCCCCCCC)C(=O)CCCCCCCN(CCCCCO)CCCCCCCCCOC(=O)OC(CCCCCC)CCCCCC [Compound I-17, 9-((8-(didecylamino)-8-oxooctyl)(5-hydroxypentyl)amino)nonyl tridecan-7-yl carbonate]	20.1 ± 6.7 µg/mL	–
CCCCCCCCCCC(CCCCCCCCCC)OC(=O)OCCCCCN(CCCCCO)CCCCCCCC(=O)N(CCCCCCCCCC)CCCCCCCCCC [Compound I-15, 5-((8-(didecylamino)-8-oxooctyl)(5-hydroxypentyl)amino)pentyl henicosan-11-yl carbonate]	7.8 ± 4.0 µg/mL	–
CCCCCCCCCCC(CCCCCCCCCC)OC(=O)OCCCCCCCCCN(CCCCCO)CCCCCCCC(=O)N(CCCCCCCCCC)CCCCCCCCCC [Compound I-13, 9-((8-(didecylamino)-8-oxooctyl)(5-hydroxypentyl)amino)nonyl henicosan-11-yl carbonate]	18.2 ± 3.3 µg/mL	143.2 ± 23.9 µg/mL
CCCCCCCCCCN(CCCCCCCCCC)C(=O)CCCCCCCN(CCCCCO)CCCCCCCCOC(=O)OCC(CCCC)CCCCCC (stereo not shown) [Compound I-12, 2-butyloctyl (8-((8-(didecylamino)-8-oxooctyl)(5-hydroxypentyl)amino)octyl) carbonate]	19.7 ± 6.8 µg/mL	–

Reference: patent US20240423915A1, “LIPIDS FOR USE IN LIPID NANOPARTICLES” (Acuitas Therapeutics, Inc., priority 2023, published 2024)
